Assay [1] deals with S. aureus (Methicillin-R). In words: In vitro activity (geometric mean MIC, serial dilution). Type of assay: cell-based. The note with it: Staphylococcus aureus; 15 strains; Mueller-Hinton agar, inoculum 10^4 dilution; MIC cutoff 200 mcg./ml.
For another assay, the system named is S. marcescens. The description is as above. In kind it is cell-based. The note with it: Serratia marcescens; 16 strains; Mueller-Hinton agar, inoculum 10^4 dilution; MIC cutoff 200 mcg./ml.; read-out: Geometric Mean MIC.
Another assay has as its system S. aureus (sensitive). The description is as above. In kind it is cell-based. The note with it: Staphylococcus aureus, read-out: Geometric Mean MIC.
The test system of the next assay is Enterobacter (sensitive). Described as above. In kind it is cell-based. The note with it: 3 strains, Mueller-Hinton agar, inoculum 10^4 dilution, MIC cutoff 200 mcg./ml., read-out: Geometric Mean MIC.
In assay [2] the test system is 51 gram-positive and 96 gram-negative bacteria. In words: In vitro activity against 147 test organisms (overall comparison). In kind it is cell-based. The note with it: compared with BB-S483 and BB-S469, respectively. The method, then:
The MIC's were determined by the serial dilution method using Mueller-Hinton agar against 51 gram-positive and 96 gram-negative bacteria. The 147 test organisms were classified into 16 groups according to the genera and the types of antibiotic resistance, 5 groups for gram-positive and 11 for gram-negative bacteria.

Assay [3] concerns S. aureus penicillinase+). In words: In vitro activity (geometric mean MIC, serial dilution). In kind it is cell-based. The note with it: Staphylococcus aureus, read-out: Geometric Mean MIC.
The subject of another assay is Proteus (indole +). Described as above. The note with it: read-out: Geometric Mean MIC. In kind it is cell-based.
For the next assay, the system named is Klebsiella sp. The description is as above. In kind it is cell-based. The note with it: 12 strains, Mueller-Hinton agar, inoculum 10^4 dilution, MIC cutoff 200 mcg./ml., read-out: Geometric Mean MIC.
For assay [4], the system named is Miscellaneous (Salmonella, Shigella, Citrobacter). In words: microbe, parasite or virus in culture. The note with it: read-out: Geometric Mean MIC.
In a further assay the test system is Proteus (indole-). Description: In vitro activity (geometric mean MIC, serial dilution). In kind it is cell-based. The note with it: read-out: Geometric Mean MIC.
In assay [5] the test system is Enterobacter (Cephalosporinase +). The assay is described as above. In kind it is cell-based. The note with it: 7 strains, Mueller-Hinton agar, inoculum 10^4 dilution, MIC cutoff 200 mcg./ml.
Assay [6] concerns E. coli (Penicillinase +). The assay is described as above. In kind it is cell-based. The note with it: Escherichia coli; 7 strains; Mueller-Hinton agar, inoculum 10^4 dilution; MIC cutoff 200 mcg./ml.; read-out: Geometric Mean MIC.
For assay [7], the system named is Proteus (indole +, cephalosporinase +). The assay is described as above. Type of assay: cell-based. The note with it: 5 strains; Mueller-Hinton agar, inoculum 10^4 dilution; MIC cutoff 200 mcg./ml.; read-out: Geometric Mean MIC.
In the next assay the test system is E. coli (sensitive). The description is as above. In kind it is cell-based. The note with it: Escherichia coli; 13 strains; Mueller-Hinton agar, inoculum 10^4 dilution; MIC cutoff 200 mcg./ml.; read-out: Geometric Mean MIC.
In the next assay the test system is S. pyogenes. Described as above. The note with it: Streptococcus pyogenes; 10 strains; Mueller-Hinton agar, inoculum 10^4 dilution; MIC cutoff 200 mcg./ml. Type of assay: cell-based.
For another assay, the system named is Providencia sp. Described as above. In kind it is cell-based. The note with it: 5 strains, Mueller-Hinton agar, inoculum 10^4 dilution, MIC cutoff 200 mcg./ml., read-out: Geometric Mean MIC.
The next assay has as its system D. pneumoniae. The assay is described as above. In kind it is cell-based. The note with it: Streptococcus pneumoniae; 9 strains; Mueller-Hinton agar, inoculum 10^4 dilution; MIC cutoff 200 mcg./ml.
A further assay has as its system E. coli Juhl. Description: In vivo activity (Mice, sc). The note with it: Escherichia coli, several determinations listed, read-out: PD50. The source says:
(§1) |In vivo Activity of BB-[…] and Related Compounds (Mice, sc) | (PD50 (mgm./kg.)

Another assay deals with S. aureus Smith. Description: In vivo activity (Mice, sc). The note with it: Staphylococcus aureus, several determinations listed, read-out: PD50.
Description: as §1

Values after ≈ are worked out from the molar mass of the structure shown.

Take `CNCc1ccsc1CC(=O)N[C@@H]1C(=O)N2C(C(=O)O)=C(CSc3ccc4nn(CC(=O)O)c(=O)n4n3)CS[C@H]12` [BB-S472, 7-(3-Methylaminomethyl-2-thienylacetamido)-3-(2-carboxymethyl-2,3-dihydro-s-triazolo[4,3-b]pyridazin-3-on-6-ylthiomethyl)-3-cephem-4-carboxylic Acid]: the MIC in assay [1] was 58 µg/mL (≈ 95.8 µM); with S. marcescens, 200 µg/mL (≈ 330 µM); with S. aureus (sensitive), 0.4 µg/mL (≈ 0.66 µM); in the assay on Enterobacter (sensitive), 1.3 µg/mL (≈ 2.15 µM); in assay [3] it was 0.9 µg/mL (≈ 1.49 µM); in the assay on Proteus (indole +), 0.3 µg/mL (≈ 0.495 µM). In addition, the MIC worked out at 0.8 µg/mL (≈ 1.32 µM) with Klebsiella sp.; 0.4 µg/mL (≈ 0.66 µM) in [4]; 0.3 µg/mL (≈ 0.495 µM) with Proteus (indole-); 3.2 µg/mL (≈ 5.28 µM) in [5]; 15 µg/mL (≈ 24.8 µM) in assay [6]; 8.3 µg/mL (≈ 13.7 µM) in assay [7]. In addition, the MIC came to 0.2 µg/mL (≈ 0.33 µM) in the assay on E. coli (sensitive), 0.05 µg/mL (≈ 0.0826 µM) against S. pyogenes, 4.8 µg/mL (≈ 7.92 µM) in the assay with Providencia sp. and 0.05 µg/mL (≈ 0.0826 µM) against D. pneumoniae. In assay [2], the “overall in vitro activity vs. non-N-methylated analogs” value is listed as “better overall activity than their non-N-methylated analogs”. The ED50 turned out to be 0.19 mg/kg in the assay with E. coli Juhl and 0.12 mg/kg in the assay on S. aureus Smith.
